Legend:
hJAK2 = hJAK2 (Homo sapiens (Human), UniProt O60674); test: hJAK2 LANCE TR-FRET enzymatic assay; assay type: biochemical; details: read-out: JAK2 IC50
IKKε = IKKε (Homo sapiens (Human), UniProt Q14164); test: IKKε TR-FRET enzymatic assay; assay type: biochemical; details: read-out: IKKe IC50
TBK1 = TBK1 (Homo sapiens (Human), UniProt Q9UHD2); test: TBK1 TR-FRET enzymatic assay;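 note: phosphorylation of a biotinylated Ser/Thr peptide by purified full-length recombinant TBK1, read by TR-FRET after 240 min at 25 °C, IC50 is the geometric mean of at least four runs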
Sequence of TBK1 (Q9UHD2 whole entry): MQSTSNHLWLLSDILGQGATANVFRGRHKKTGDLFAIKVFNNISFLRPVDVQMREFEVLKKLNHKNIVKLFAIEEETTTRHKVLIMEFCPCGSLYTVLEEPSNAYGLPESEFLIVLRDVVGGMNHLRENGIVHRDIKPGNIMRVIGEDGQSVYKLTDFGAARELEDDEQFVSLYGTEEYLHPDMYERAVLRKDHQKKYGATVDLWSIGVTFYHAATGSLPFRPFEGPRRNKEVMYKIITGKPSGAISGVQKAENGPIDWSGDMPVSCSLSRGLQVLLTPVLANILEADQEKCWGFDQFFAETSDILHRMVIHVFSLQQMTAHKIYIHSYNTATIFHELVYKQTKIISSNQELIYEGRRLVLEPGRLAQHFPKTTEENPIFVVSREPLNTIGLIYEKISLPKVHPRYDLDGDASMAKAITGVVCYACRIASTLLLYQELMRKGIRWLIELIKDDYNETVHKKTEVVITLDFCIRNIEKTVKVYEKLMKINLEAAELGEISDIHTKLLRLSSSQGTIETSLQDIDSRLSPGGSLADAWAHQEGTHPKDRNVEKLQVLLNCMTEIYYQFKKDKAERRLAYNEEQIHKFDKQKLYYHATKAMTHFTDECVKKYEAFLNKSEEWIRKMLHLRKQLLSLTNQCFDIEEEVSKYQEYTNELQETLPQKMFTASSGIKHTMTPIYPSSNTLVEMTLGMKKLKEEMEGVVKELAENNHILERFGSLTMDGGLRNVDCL
Experimental: Enzymatic activity of IKKε and TBK1 was measured using a homogeneous time resolved fluorescence resonance energy transfer (TR-FRET) assay that monitors enzyme dependent phosphorylation of a biotinylated serine/threonine peptide substrate. […] TBK1 and IKKε were expressed and purified as full length recombinant proteins. Detection reagents for the assay were purchased from Cisbio. […] After an assay reaction time of 240 minutes at 25° C., reactions were terminated with EDTA.
All IC50 values represent geometric mean values of a minimum of four determinations.

Sequence of hJAK2 (O60674 whole entry): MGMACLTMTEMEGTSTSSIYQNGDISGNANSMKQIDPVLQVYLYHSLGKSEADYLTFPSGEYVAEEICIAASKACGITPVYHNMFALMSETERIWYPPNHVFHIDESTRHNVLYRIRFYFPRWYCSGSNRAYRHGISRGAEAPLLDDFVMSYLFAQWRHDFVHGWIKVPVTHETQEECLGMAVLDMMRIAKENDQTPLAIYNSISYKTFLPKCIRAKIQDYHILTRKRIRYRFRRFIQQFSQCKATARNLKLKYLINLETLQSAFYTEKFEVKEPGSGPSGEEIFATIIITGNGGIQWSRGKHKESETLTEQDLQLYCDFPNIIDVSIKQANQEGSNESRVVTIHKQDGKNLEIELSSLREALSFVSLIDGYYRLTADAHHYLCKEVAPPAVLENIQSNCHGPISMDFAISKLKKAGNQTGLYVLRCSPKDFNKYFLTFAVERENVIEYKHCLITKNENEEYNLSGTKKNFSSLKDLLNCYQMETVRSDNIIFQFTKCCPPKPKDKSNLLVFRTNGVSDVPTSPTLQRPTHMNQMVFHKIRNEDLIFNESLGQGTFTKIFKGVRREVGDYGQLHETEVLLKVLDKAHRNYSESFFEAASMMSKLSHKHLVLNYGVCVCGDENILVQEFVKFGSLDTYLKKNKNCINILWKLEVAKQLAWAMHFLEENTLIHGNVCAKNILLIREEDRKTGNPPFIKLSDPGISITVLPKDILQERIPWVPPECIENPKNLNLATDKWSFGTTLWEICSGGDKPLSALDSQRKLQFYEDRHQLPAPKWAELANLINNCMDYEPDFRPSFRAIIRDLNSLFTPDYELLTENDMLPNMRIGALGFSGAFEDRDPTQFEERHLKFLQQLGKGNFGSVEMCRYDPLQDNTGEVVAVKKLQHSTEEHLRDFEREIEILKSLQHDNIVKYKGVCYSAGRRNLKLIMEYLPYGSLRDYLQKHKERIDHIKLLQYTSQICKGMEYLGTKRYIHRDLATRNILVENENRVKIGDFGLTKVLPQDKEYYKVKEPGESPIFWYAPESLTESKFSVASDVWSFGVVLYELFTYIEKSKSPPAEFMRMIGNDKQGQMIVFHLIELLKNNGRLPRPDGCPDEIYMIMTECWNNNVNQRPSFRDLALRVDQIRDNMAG
Sequence of IKKε (Q14164 whole entry): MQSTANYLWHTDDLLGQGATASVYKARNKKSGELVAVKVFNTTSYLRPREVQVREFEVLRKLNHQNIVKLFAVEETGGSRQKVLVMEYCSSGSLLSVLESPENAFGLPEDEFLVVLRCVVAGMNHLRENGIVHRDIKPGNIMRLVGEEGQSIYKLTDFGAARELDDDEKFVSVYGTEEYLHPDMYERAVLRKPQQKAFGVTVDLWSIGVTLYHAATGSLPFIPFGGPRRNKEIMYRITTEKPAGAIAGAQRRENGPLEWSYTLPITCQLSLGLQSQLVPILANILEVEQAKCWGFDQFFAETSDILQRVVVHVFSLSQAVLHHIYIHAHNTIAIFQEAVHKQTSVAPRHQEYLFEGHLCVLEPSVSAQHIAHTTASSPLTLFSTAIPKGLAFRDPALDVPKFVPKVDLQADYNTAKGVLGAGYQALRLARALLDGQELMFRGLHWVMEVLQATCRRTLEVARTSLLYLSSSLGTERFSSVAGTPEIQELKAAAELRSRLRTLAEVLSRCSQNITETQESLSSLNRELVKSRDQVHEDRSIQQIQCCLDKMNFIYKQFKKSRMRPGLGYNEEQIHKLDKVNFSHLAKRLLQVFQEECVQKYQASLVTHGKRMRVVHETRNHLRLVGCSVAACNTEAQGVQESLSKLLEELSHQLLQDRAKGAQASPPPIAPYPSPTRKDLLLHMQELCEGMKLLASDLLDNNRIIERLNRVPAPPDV

| SMILES | IC50 (hJAK2) | IC50 (IKKε) | IC50 (TBK1) |
| --- | --- | --- | --- |
| N#Cc1cc(-c2ncnc(Nc3ccc(N4CCN(C5COC5)CC4)cc3)n2)ccc1O[C@H]1CCCN(C(=O)CO)C1 [Example 127, (S)-2-((1-(2-hydroxyacetyl)piperidin-3-yl)oxy)-5-(4-((4-(4-(oxetan-3-yl)piperazin-1-yl)phenyl)amino)-1,3,5-triazin-2-yl)benzonitrile] | 394 nM | 562 nM | 180 nM |
| C[C@H](O)C(=O)N1CCC[C@H](Oc2ccc(-c3ncnc(Nc4ccc(N5CCN(C6COC6)CC5)cc4)n3)cc2C#N)C1 [Example 128, 2-(((S)-1-((S)-2-hydroxypropanoyl)piperidin-3-yl)oxy)-5-(4-((4-(4-(oxetan-3-yl)piperazin-1-yl)phenyl)amino)-1,3,5-triazin-2-yl)benzonitrile] | 632 nM | 177 nM | 37 nM |
| N#Cc1cc(-c2ncnc(Nc3ccc(N4CCN(C5COC5)CC4)cc3)n2)ccc1O[C@H]1CCN(C(=O)[C@H]2CCCCN2)C[C@H]1F [Example 129, 2-(((3R,4S)-3-fluoro-1-((R)-piperidine-2-carbonyl)piperidin-4-yl)oxy)-5-(4-((4-(4-(oxetan-3-yl)piperazin-1-yl)phenyl)amino)-1,3,5-triazin-2-yl)benzonitrile] | ≥ 1000 nM | 619 nM | 334 nM |
| N#Cc1cc(-c2ncnc(Nc3ccc(N4CCN(C5COC5)CC4)cc3)n2)ccc1O[C@H]1CCN(C(=O)[C@H]2CCCN2)C[C@H]1F [Example 130, 2-(((3R,4S)-3-fluoro-1-((R)-pyrrolidine-2-carbonyl)piperidin-4-yl)oxy)-5-(4-((4-(4-(oxetan-3-yl)piperazin-1-yl)phenyl)amino)-1,3,5-triazin-2-yl)benzonitrile] | ≥ 1000 nM | 73 nM | 29 nM |
| N#Cc1cc(-c2ncnc(Nc3ccc(N4CCN(C5COC5)CC4)cc3)n2)ccc1O[C@H]1CCN(C(=O)[C@@H]2CCCCN2)C[C@H]1F [Example 131, 2-(((3R,4S)-3-fluoro-1-((S)-piperidine-2-carbonyl)piperidin-4-yl)oxy)-5-(4-((4-(4-(oxetan-3-yl)piperazin-1-yl)phenyl)amino)-1,3,5-triazin-2-yl)benzonitrile] | ≥ 1000 nM | 175 nM | 101 nM |
| N#Cc1cc(-c2ncnc(Nc3ccc(N4CCN(C5COC5)CC4)cc3)n2)ccc1O[C@H]1CCN(C(=O)[C@H]2CC(F)(F)CN2)C[C@H]1F [Example 132, 2-(((3R,4S)-1-((R)-4,4-difluoropyrrolidine-2-carbonyl)-3-fluoropiperidin-4-yl)oxy)-5-(4-((4-(4-(oxetan-3-yl)piperazin-1-yl)phenyl)amino)-1,3,5-triazin-2-yl)benzonitrile] | ≥ 1000 nM | 51 nM | 25 nM |
| C[C@H](O)C(=O)N1CCC(Oc2cc(C#N)cc(-c3ncnc(Nc4ccc(N5CCN(C6COC6)CC5)cc4)n3)c2)CC1 [Example 134, (S)-3-((1-(2-hydroxypropanoyl)piperidin-4-yl)oxy)-5-(4-((4-(4-(oxetan-3-yl)piperazin-1-yl)phenyl)amino)-1,3,5-triazin-2-yl)benzonitrile] | 371 nM | ≥ 1000 nM | 520 nM |
| N#Cc1cc(-c2ncnc(Nc3ccc(N4CCN(C5COC5)CC4)cc3)n2)ccc1O[C@H]1CCN(C(=O)c2cn[nH]c2Cl)C[C@H]1F [Example 136, 2-(((3R,4S)-1-(5-chloro-1H-pyrazole-4-carbonyl)-3-fluoropiperidin-4-yl)oxy)-5-(4-((4-(4-(oxetan-3-yl)piperazin-1-yl)phenyl)amino)-1,3,5-triazin-2-yl)benzonitrile] | 167 nM | 73 nM | 46 nM |
| N#Cc1cc(-c2ncnc(Nc3ccc(N4CCN(C5COC5)CC4)cc3)n2)ccc1O[C@H]1CCN(C(=O)c2cc[nH]c(=O)c2)C[C@H]1F [Example 137, 2-(((3R,4S)-3-fluoro-1-(2-oxo-1,2-dihydropyridine-4-carbonyl)piperidin-4-yl)oxy)-5-(4-((4-(4-(oxetan-3-yl)piperazin-1-yl)phenyl)amino)-1,3,5-triazin-2-yl)benzonitrile] | 207 nM | 32 nM | 19 nM |

The next lines start with the values.

| IC50 (hJAK2) | IC50 (IKKε) | IC50 (TBK1) | SMILES |
| --- | --- | --- | --- |
| 146 nM | 2 nM | 2 nM | N#CCC(=O)N1CC[C@H](Oc2ccc(-c3ncnc(Nc4ccc(N5CCN(C6COC6)CC5)cc4)n3)cc2C#N)[C@H](F)C1 [Example 138, 2-(((3R,4S)-1-(2-cyanoacetyl)-3-fluoropiperidin-4-yl)oxy)-5-(4-((4-(4-(oxetan-3-yl)piperazin-1-yl)phenyl)amino)-1,3,5-triazin-2-yl)benzonitrile] |
| 408 nM | 7 nM | 4 nM | N#Cc1cc(-c2ncnc(Nc3ccc(N4CCN(C5COC5)CC4)cc3)n2)ccc1O[C@H]1CCN(C(=O)CCO)C[C@H]1F [Example 139, 2-(((3R,4S)-3-fluoro-1-(3-hydroxypropanoyl)piperidin-4-yl)oxy)-5-(4-((4-(4-(oxetan-3-yl)piperazin-1-yl)phenyl)amino)-1,3,5-triazin-2-yl)benzonitrile] |
| 341 nM | 10 nM | 6 nM | N#Cc1cc(-c2ncnc(Nc3ccc(N4CCN(C5COC5)CC4)cc3)n2)ccc1O[C@H]1CCN(C(=O)C2(O)CC2)C[C@H]1F [Example 140, 2-(((3R,4S)-3-fluoro-1-(1-hydroxycyclopropanecarbonyl)piperidin-4-yl)oxy)-5-(4-((4-(4-(oxetan-3-yl)piperazin-1-yl)phenyl)amino)-1,3,5-triazin-2-yl)benzonitrile] |
| 356 nM | 2 nM | 3 nM | N#Cc1cc(-c2ncnc(Nc3ccc(N4CCN(C5COC5)CC4)cc3)n2)ccc1O[C@H]1CCN(C(=O)c2ccc[nH]2)C[C@H]1F [Example 141, 2-(((3R,4S)-3-fluoro-1-(1H-pyrrole-2-carbonyl)piperidin-4-yl)oxy)-5-(4-((4-(4-(oxetan-3-yl)piperazin-1-yl)phenyl)amino)-1,3,5-triazin-2-yl)benzonitrile] |
| 174 nM | 4 nM | 3 nM | N#Cc1cc(-c2ncnc(Nc3ccc(N4CCN(C5COC5)CC4)cc3)n2)ccc1O[C@H]1CCN(C(=O)c2ncc[nH]2)C[C@H]1F [Example 142, 2-(((3R,4S)-3-fluoro-1-(1H-imidazole-2-carbonyl)piperidin-4-yl)oxy)-5-(4-((4-(4-(oxetan-3-yl)piperazin-1-yl)phenyl)amino)-1,3,5-triazin-2-yl)benzonitrile] |
| 84 nM | 1 nM | 2 nM | N#Cc1cc(-c2ncnc(Nc3ccc(N4CCN(C5COC5)CC4)cc3)n2)ccc1O[C@H]1CCN(C(=O)c2cnn[nH]2)C[C@H]1F [Example 143, 2-(((3R,4S)-3-fluoro-1-(1H-1,2,3-triazole-5-carbonyl)piperidin-4-yl)oxy)-5-(4-((4-(4-(oxetan-3-yl)piperazin-1-yl)phenyl)amino)-1,3,5-triazin-2-yl)benzonitrile] |
| 104 nM | 1 nM | 2 nM | N#Cc1cc(-c2ncnc(Nc3ccc(N4CCN(C5COC5)CC4)cc3)n2)ccc1O[C@H]1CCN(C(=O)c2nnc[nH]2)C[C@H]1F [Example 144, 2-(((3R,4S)-3-fluoro-1-(4H-1,2,4-triazole-3-carbonyl)piperidin-4-yl)oxy)-5-(4-((4-(4-(oxetan-3-yl)piperazin-1-yl)phenyl)amino)-1,3,5-triazin-2-yl)benzonitrile] |
| 219 nM | 1 nM | 2 nM | N#Cc1cc(-c2ncnc(Nc3ccc(N4CCN(C5COC5)CC4)cc3)n2)ccc1O[C@H]1CCN(C(=O)c2ccn[nH]2)C[C@H]1F [Example 145, 2-(((3R,4S)-3-fluoro-1-(1H-pyrazole-5-carbonyl)piperidin-4-yl)oxy)-5-(4-((4-(4-(oxetan-3-yl)piperazin-1-yl)phenyl)amino)-1,3,5-triazin-2-yl)benzonitrile] |
| 156 nM | 1 nM | 3 nM | N#Cc1cc(-c2ncnc(Nc3ccc(N4CCN(C5COC5)CC4)cc3)n2)ccc1O[C@H]1CCN(C(=O)c2cnc[nH]2)C[C@H]1F [Example 146, 2-(((3R,4S)-3-fluoro-1-(1H-imidazole-5-carbonyl)piperidin-4-yl)oxy)-5-(4-((4-(4-(oxetan-3-yl)piperazin-1-yl)phenyl)amino)-1,3,5-triazin-2-yl)benzonitrile] |
| 184 nM | 1 nM | 3 nM | Cn1cc(C(=O)N2CC[C@H](Oc3ccc(-c4ncnc(Nc5ccc(N6CCN(C7COC7)CC6)cc5)n4)cc3C#N)[C@H](F)C2)nn1 [Example 147, 2-(((3R,4S)-3-fluoro-1-(1-methyl-1H-1,2,3-triazole-4-carbonyl)piperidin-4-yl)oxy)-5-(4-((4-(4-(oxetan-3-yl)piperazin-1-yl)phenyl)amino)-1,3,5-triazin-2-yl)benzonitrile] |
| 168 nM | 3 nM | 1 nM | C[C@H](O)C(=O)N1CCC(Oc2ccc(-c3ncnc(Nc4ccc(N5CCN(C6COC6)CC5)cc4)n3)cc2C#N)C(F)(F)C1 (stereo partly drawn) [Example 154, 2-((3,3-difluoro-1-((S)-2-hydroxypropanoyl)piperidin-4-yl)oxy)-5-(4-((4-(4-(oxetan-3-yl)piperazin-1-yl)phenyl)amino)-1,3,5-triazin-2-yl)benzonitrile] |
| 188 nM | 14 nM | 3 nM | C[C@@H](O)C(=O)N1CCC(Oc2ccc(-c3ncnc(Nc4ccc(N5CCN(C6COC6)CC5)cc4)n3)cc2C#N)C(F)(F)C1 (stereo partly drawn) [Example 157, 2-((3,3-difluoro-1-((R)-2-hydroxypropanoyl)piperidin-4-yl)oxy)-5-(4-((4-(4-(oxetan-3-yl)piperazin-1-yl)phenyl)amino)-1,3,5-triazin-2-yl)benzonitrile] |
| 173 nM | 2 nM | 2 nM | N#Cc1cc(-c2ncnc(Nc3ccc(N4CCN(C5COC5)CC4)cc3)n2)ccc1O[C@H]1CCN(C(=O)CCO)CC1(F)F [Example 161, (S)-2-((3,3-difluoro-1-(3-hydroxypropanoyl)piperidin-4-yl)oxy)-5-(4-((4-(4-(oxetan-3-yl)piperazin-1-yl)phenyl)amino)-1,3,5-triazin-2-yl)benzonitrile] |

— patent US10040781B2, “Tank-binding kinase inhibitor compounds” (Gilead Sciences, Inc., priority 2014, dated 2018)
